In US4181714A (priority 1977, dated 1980):

How the values were obtained:
[1] = tested on: Pyricularia oryzae; assay type: in vivo; conditions: blast of rice, 20 ppm in sprayed dilution
[2] = tested on: blast of rice; conditions: commercially available antibiotic chemical; cited from earlier work
[3] = tested on: plants; assay: Phytotoxicity (general statement); assay type: in vivo
[4] = tested on: Colletotrichum lagenarium; assay: Test on control effect on anthracnose in cucumber; assay type: in vivo; conditions: 1000 ppm in sprayed composition
Method: Cucumber seedlings (Sagami Hanpaku variety) planted one plant per pot were used for the test, and each test area included three pots. After seeding was carried out by using Kureha Soil, the pots were kept for 2 weeks in an air-conditioned green house (maximum daytime temperature=28° C., minimum night temperature=20° C., light illumination time=12 hours per day, light source=sunglow lamp) to grow the cucumber plants.
A chemical composition having a predetermined concentration, which was prepared according to the method described in Example 3 was sprayed on the plants by a spray gun and the plants were air-dried for 2 hours in a green house.
Spores of a pathogenic fungus causing anthracnose in cucumber (Colletotrichum lagenarium), which had been cultured for 10 days at 23° C. in an agar slant culture medium of sweet corn, were taken into sterilized water, and one drop of a spreader was added to 50 cc of the spore suspension. In an inoculation box, the spore suspension was sprayed on the plants in an amount of 50 cc per 50 seedling by a spray gun to effect inoculation. […]
The total number of disease spots on leaves of the plants of each area was counted and the control value was calculated according to the following formula: [formula]

Compound	Control Value [1]	Specificity of controlling effect [2]	Phytotoxicity [3]	Control Value [4]
CN(CC[C@H](N)CC(=O)N[C@H]1C=C[C@H](n2ccc(N)nc2=O)O[C@@H]1C(=O)O)C(=N)N [Blasticidin S, blasticidinS-benzylaminobenzene-sulfonate]	95%	specific effect on blast of rice alone		
manganous ethylene1,2-bis-dithiocarbomate- [Maneb-Dithane]			causes phytotoxicity	95%
